From ChEMBL document CHEMBL1144970, “Protective effects of steroid saponins from Paris polyphylla var. yunnanensis on ethanol- or indomethacin-induced gastric mucosal lesions in rats: structural requirement for activity and mode of action” (Bioorg Med Chem Lett, 2003) come the findings set out here.

Series [1] relates to Rattus norvegicus. Nature of the series: Acid output from the stomach (control value = 120.3+/-11.1) in pylorus ligated rats (5 mg/kg po of the Compound was administered 1 hr before the pylorus ligation). In kind it is functional.
In series [2] the test system is Rattus norvegicus. Nature of the series: Percent inhibition of gastric lesions induced by ethanol was measured, after administration of 5 mg/kg po in l-NAME-pretreated rats. In kind it is functional. The conditions noted are these: Stomach.
In series [3] the test system is Rattus norvegicus. Nature of the series: Reduction in length (control value = 70.4+/-2.3) of gastric lesions induced by endomethacin was measured, after administration of 2.5 mg/kg po in rats. It counts as functional, Stomach.
In series [4] the test system is Rattus norvegicus. Nature of the series: Percent inhibition of gastric lesions (length = 34.3+/-5.5) induced by ethanol was measured, after administration of 2.5 mg/kg po in rats. It counts as functional. The conditions noted are these: Stomach.
The subject of series [5] is Rattus norvegicus. Nature of the series: Percent inhibition of gastric lesions (length = 126.6+/-16.9) induced by ethanol was measured, after administration of 5 mg/kg po in endomethacin pretreated r rats. It counts as functional. To be noted: Stomach.
The test system of series [6] is Rattus norvegicus. Nature of the series: Reduction in length (control value = 70.4+/-2.3) of gastric lesions induced by endomethacin was measured, after administration of 5 mg/kg po in rats. In kind it is functional, Stomach.
Series [7] has as its system Rattus norvegicus. Nature of the series: Reduction in length (control value = 190.1+/-9.3) of gastric lesions induced by endomethacin was measured, after administration of 5 mg/kg po L-NAME-pretreated in rats. In kind it is functional, Stomach.
Series [8] has as its system Rattus norvegicus. Nature of the series: Reduction in length (control value = 141+/-14.3) of gastric lesions induced by ethanol was measured, after administration of 5 mg/kg po in rats. It counts as functional, Stomach.
Series [9] has as its system Rattus norvegicus. Nature of the series: Percent inhibition of gastric lesions (length = 110+/-8.4) induced by ethanol was measured, after administration of 2.5 mg/kg po in NEM-pretreated rats. In kind it is functional. The conditions noted are these: Stomach.
Series [10] has as its system Rattus norvegicus. Nature of the series: Percent inhibition of gastric lesions (length = 92.8+/-8) induced by ethanol was measured, after administration of 2.5 mg/kg po in l-NAME-pretreated rats. It counts as functional. The conditions noted are these: Stomach.
Series [11] relates to Rattus norvegicus. Nature of the series: Reduction in length (control value = 190.1+/-9.3) of gastric lesions induced by endomethacin was measured, after administration of 2.5 mg/kg po L-NAME-pretreated in rats. It counts as functional, Stomach.
For series [12], the system named is Rattus norvegicus. Nature of the series: Volume of the gastric juice (control value = 4.7+/-.3) of stomach content of pylorus ligated rats was measured (5 mg/kg po of the Compound was administered 1 hr before the pylorus ligation). It counts as functional.
Series [13] relates to Rattus norvegicus. Nature of the series: Percent inhibition of gastric lesions induced by ethanol was measured, after administration of 1.25 mg/kg po in rats. In kind it is functional. The conditions noted are these: Stomach.
Series [14] deals with Rattus norvegicus. Nature of the series: Reduction in length (control value = 206.7+/-6.3) of gastric lesions induced by endomethacin was measured, after administration of 5 mg/kg po NEM-pretreated in rats. It counts as functional, Stomach.
The subject of series [15] is Rattus norvegicus. Nature of the series: Percent inhibition of gastric lesions induced by endomethacin was measured, after administration of 5 mg/kg po in rats. It counts as functional. To be noted: Stomach.
For series [16], the system named is Rattus norvegicus. Nature of the series: pH of the gastric juice (control value = 1.39+/-0.02) of stomach content of pylorus ligated rats was measured (5 mg/kg po of the Compound was administered 1 hr before the pylorus ligation). It counts as ADME, organism-based. To be noted: in vivo.
Series [17] relates to Rattus norvegicus. Nature of the series: Reduction in length (control value = 152.9+/-9.7) of gastric lesions induced by ethanol was measured, after administration of 2.5 mg/kg po in Indomethacin-pretreated rats. It counts as functional, Stomach.
In series [18] the test system is Rattus norvegicus. Nature of the series: Reduction in length (control value = 152.9+/-9.7) of gastric lesions induced by ethanol was measured, after administration of 5 mg/kg po in Indomethacin-pretreated rats. In kind it is functional, Stomach.
The test system of series [19] is Rattus norvegicus. Nature of the series: Percent inhibition of gastric lesions (length = 50+/-9.9) induced by ethanol was measured, after administration of 5 mg/kg po in l-NAME-pretreated rats. It counts as functional. The conditions noted are these: Stomach.
In series [20] the test system is Rattus norvegicus. Nature of the series: Percent inhibition of gastric lesions induced by ethanol was measured, after administration of 2.5 mg/kg po in rats. In kind it is functional. To be noted: Stomach.
The test system of series [21] is Rattus norvegicus. Nature of the series: Percent inhibition of gastric lesions induced by endomethacin was measured, after administration of 2.5 mg/kg po in rats. It counts as functional. To be noted: Stomach.
Series [22] has as its system Rattus norvegicus. Nature of the series: Volume of the gastric juice (control value = 4.7+/-.3) of stomach content of pylorus ligated rats was measured(2.5 mg/kg po of the Compound was administered 1 hr before the pylorus ligation). In kind it is functional.
In series [23] the test system is Rattus norvegicus. Nature of the series: Percent inhibition of gastric lesions induced by ethanol was measured, after administration of 5 mg/kg po in rats. It counts as functional. The conditions noted are these: Stomach.
The subject of series [24] is Rattus norvegicus. Nature of the series: Reduction in length (control value = 141+/-14.3) of gastric lesions induced by ethanol was measured, after administration of 1.25 mg/kg po in rats. In kind it is functional, Stomach.
Series [25] deals with Rattus norvegicus. Nature of the series: Percent inhibition of gastric lesions (length = 24.9 +/-3.6) induced by ethanol was measured, after administration of 5 mg/kg po in rats. The conditions noted are these: Stomach. In kind it is functional.
Series [26] deals with Rattus norvegicus. Nature of the series: Percent inhibition of gastric lesions induced by endomethacin was measured, after administration of 1.25 mg/kg po in rats. It counts as functional. The conditions noted are these: Stomach.
In series [27] the test system is Rattus norvegicus. Nature of the series: Reduction in length (control value = 141+/-14.3) of gastric lesions induced by ethanol was measured, after administration of 2.5 mg/kg po in rats. In kind it is functional, Stomach.
The test system of series [28] is Rattus norvegicus. Nature of the series: Reduction in length (control value = 206.7+/-6.3) of gastric lesions induced by endomethacin was measured, after administration of 2.5 mg/kg po NEM-pretreated in rats. It counts as functional, Stomach.
Series [29] relates to Rattus norvegicus. Nature of the series: Reduction in length (control value = 70.4+/-2.3) of gastric lesions induced by endomethacin was measured, after administration of 1.25 mg/kg po in rats. In kind it is functional, Stomach.
Series [30] concerns Rattus norvegicus. Nature of the series: Percent inhibition of gastric lesions (length = 139.3+/-11.2) induced by ethanol was measured, after administration of 2.5 mg/kg po in endomethacin pretreated rats. It counts as functional. To be noted: Stomach.
In series [31] the test system is Rattus norvegicus. Nature of the series: Acid output from the stomach (control value = 120.3+/-11.1) in pylorus ligated rats (2.5 mg/kg po of the Compound was administered 1 hr before the pylorus ligation). In kind it is functional.
In series [32] the test system is Rattus norvegicus. Nature of the series: pH of the gastric juice (control value = 1.39+/-0.02) of stomach content of pylorus ligated rats was measured (2.5 mg/kg po of the Compound was administered 1 hr before the pylorus ligation). In kind it is ADME, organism-based. To be noted: in vivo.
Series [33] has as its system Rattus norvegicus. Nature of the series: Reduction in length ((control value = 126+/-9.1) of gastric lesions induced by ethanol was measured, after administration of 5 mg/kg po in rats. In kind it is functional, Stomach.
Series [34] concerns Rattus norvegicus. Nature of the series: Reduction in length (control value = 126+/-9.1) of gastric lesions induced by ethanol was measured, after administration of 2.5 mg/kg po in rats. In kind it is functional, Stomach.

By inhibition in vivo is commonly meant how much of the control response was suppressed. On to `CC1CC[C@@]2(OC1)OC1C[C@H]3[C@@H]4CC=C5C[C@@H](O[C@@H]6O[C@H](CO)[C@@H](O[C@@H]7O[C@@H](CO)[C@H](O)[C@H]7O)[C@H](O)[C@H]6O[C@@H]6O[C@@H](C)[C@H](O)[C@@H](O)[C@H]6O)CC[C@]5(C)[C@H]4CC[C@]3(C)[C@@]1(O)[C@@H]2C` (stereo partly specified), for which the Acid output in the series on Rattus norvegicus [1] amounted to 71.8 u equiv hr-1; in the series on Rattus norvegicus [31], 98.5 u equiv hr-1. Moreover, the inhibition in vivo at 5 mg/kg in the series with Rattus norvegicus [2] was found to be 69.5%; in the series on Rattus norvegicus [5], 17.2%; in the series with Rattus norvegicus [15], 70.2%; in the series with Rattus norvegicus [19], 73.7%; in the series on Rattus norvegicus [23] it was 93.7%; in the series on Rattus norvegicus [25] it was 81.7%. Also, the Length in the series on Rattus norvegicus [3] was found to be 30.3 mm; in the series with Rattus norvegicus [6], 21 mm; in the series on Rattus norvegicus [7], 50 mm; in the series with Rattus norvegicus [8], 8.9 mm; in the series with Rattus norvegicus [11], 92.8 mm; in the series on Rattus norvegicus [14], 63 mm. Further, the Length with Rattus norvegicus [17] stood at 139 mm; with Rattus norvegicus [18], 127 mm; in the series with Rattus norvegicus [24], 72.6 mm; with Rattus norvegicus [27] it was 24.1 mm; in the series with Rattus norvegicus [28], 110 mm; with Rattus norvegicus [29], 34.9 mm. Besides, the inhibition in vivo at 2.5 mg/kg in the series on Rattus norvegicus [4] is 74.8%; with Rattus norvegicus [9] it was 46.8%; in the series with Rattus norvegicus [10] it was 51.2%; with Rattus norvegicus [20], 82.9%; with Rattus norvegicus [21], 57%; with Rattus norvegicus [30], 8.9%. Further, the Volume with Rattus norvegicus [12] is given as 3.3 ml 4hr-1; with Rattus norvegicus [22], 4.1 ml 4hr-1. For the same molecule, the figures for the inhibition in vivo at 1.25 mg/kg with Rattus norvegicus [13] and in the series on Rattus norvegicus [26] were 48.5% and 50.4%, respectively. Also, the pH with Rattus norvegicus [16] and in the series on Rattus norvegicus [32] was 1.41 in each case.
Regarding `C[C@@H](CC[C@@]1(O)O[C@H]2C[C@H]3[C@@H]4CC=C5C[C@@H](O[C@@H]6O[C@H](CO)[C@@H](O)[C@H](O[C@@H]7O[C@H](CO)[C@@H](O)[C@H](O)[C@H]7O)[C@H]6O[C@@H]6O[C@@H](C)[C@H](O)[C@@H](O)[C@H]6O)CC[C@]5(C)[C@H]4CC[C@]3(C)[C@H]2[C@@H]1C)CO[C@@H]1O[C@H](CO)[C@@H](O)[C@H](O)[C@H]1O` [PROTOGRACILLIN], the Length worked out at 108 mm with Rattus norvegicus [33] and 115 mm in the series with Rattus norvegicus [34]. The molecule also had an inhibition in vivo at 2.5 mg/kg in the series with Rattus norvegicus [20] of 8.5%. The inhibition in vivo at 5 mg/kg with Rattus norvegicus [23] was determined as 14.1%.
